Assay results taken from US8629282B2, “Heterocyclic compounds as S1P1 agonists for the treatment of autoimmune and vascular diseases” (Bristol-Myers Squibb Company, priority 2010, dated 2014).
Marks after values point to notes of the source that are not given here.

Legend:
human S1P1 = human S1P1 (Homo sapiens (Human), UniProt P21453); assay: S1P1 Binding Assay (33P-S1P radioligand competition); conditions: membranes of CHO cells expressing human S1P1, 0.03 nM 33P-S1P; rounded to two digits
Protocol: Membranes were prepared from CHO cells expressing human S1P1. Cells were dissociated in buffer containing 20 mM HEPES, pH 7.5, 50 mM NaCl, 2 mM EDTA and Protease Inhibitor cocktail (Roche), and disrupted on ice using the Polytron homogenizer. The homogenate was centrifuged at 20,000 rpm (48,000 G) and the supernatant was discarded. The membrane pellets were resuspended in buffer containing 50 mM HEPES, pH 7.5, 100 mM NaCl, 1 mM MgCl2, 2 mM EDTA and stored in aliquots at −80° C. after protein concentration determination.
Membranes (2 μg/well) and 0.03 nM final concentration of 33P-S1P ligand (1 mCi/ml, American Radiolabeled Chemicals) were added to the compound plates. Binding was performed for 45 minutes at room temperature, terminated by collecting the membranes onto GF/B filter plates, and radioactivity was measured by TOPCOUNT®. The competition data of the test compounds over a range of concentrations was plotted as percentage inhibition of radioligand specific binding. The IC50 is defined as the concentration of competing ligand needed to reduce specific binding by 50%.
The results in Table A were rounded to two digits.

[1] = biological target: S1P1 (membranes from S1P1/CHO cells) (Homo sapiens (Human), UniProt P21453); assay: Receptor [35S] GTPγS Binding Assay, S1P1; type: biochemical; conditions: for EC50: S1P1/CHO membranes; for GTPγS S1P3/S1P1 (ratio of GTPγS S1P3 EC50 to GTPγS S1P1 EC50): calculated from Table B, S1P3 detection limit 31250 nM
Protocol: (§1) Receptor [35S] GTPγS Binding Assays
(§2) Compounds were loaded in a 384 FALCON® v-bottom plate (0.5 μl/well in a 3-fold dilution). Membranes prepared from S1P1/CHO cells or EDG3-Ga15-bla HEK293T cells were added to the compound plate (40 μl/well, final protein 3 μg/well) with MULTIDROP®. [^35S]GTP (1250 Ci/mmol, Perkin Elmer) was diluted in assay buffer: 20 mM HEPES, pH7.5, 10 mM MgCl2, 150 mM NaCl, 1 mM EGTA, 1 mM DTT, 10 μM GDP, 0.1% fatty acid free BSA, and 10 μg/ml Saponin to 0.4 nM. 40 μl of the [^35S] GTP solution was added to the compound plate with a final concentration of 0.2 nM. The reaction was kept at room temperature for 45 min. At the end of incubation, all the mixtures in the compound plate were transferred to a 384 well FB filter plates via GPCR robot system. The filter plate was washed with water 4 times by using the modified manifold Embla plate washer and dried at 60° C. for 45 min. 30 μl of MicroScint 20 scintillation fluid was added to each well for counting at Packard TOPCOUNT®. EC50 is defined as the agonist concentration that corresponds to 50% of the Ymax (maximal response) obtained for each individual compound tested.
A larger value for the GTPγS S1P3 EC50 value indicated less activity in the GTPγS S1P3 binding assay.

[2] = biological target: S1P3 (membranes from EDG3-Ga15-bla HEK293T cells) (Homo sapiens (Human), UniProt Q99500); assay: Receptor [35S] GTPγS Binding Assay, S1P3; type: biochemical; conditions: detection limit 31250 nM
Protocol: as §1, §2
A smaller value for GTPγS S1P1 EC50 value indicated greater activity for the compound in the GTPγS S1P1 binding assay. A larger value for the GTPγS S1P3 EC50 value indicated less activity in the GTPγS S1P3 binding assay.

[3] = tested on: circulating blood lymphocytes; assay: Blood Lymphocyte Reduction Assay (BLR) in Rodents; type: in vivo; conditions: Lewis rats, oral, vs vehicle group
Protocol: Blood Lymphocyte Reduction Assay (BLR) in Rodents
Lewis rats were dosed orally with test article (as a solution or suspension in the vehicle) or vehicle alone (polyethylene glycol 300, “PEG300”). Blood was drawn at 4 hr by retro-orbital bleeding. Blood lymphocyte counts were determined on an ADVIA® 120 Hematology Analyzer (Siemens Healthcare Diagnostics). The results were measured as a reduction in the percentage of circulating lymphocytes as compared to the vehicle treated group at the 4 hr measurement. The results represent the average results of all animals within each treatment group (n=3-4).
The following examples were tested in the Blood Lymphocyte Reduction assay (BLR) described herein above and the results are shown in Table D for rats.

Sequence of S1P3 (membranes from EDG3-Ga15-bla HEK293T cells) (Q99500 whole entry): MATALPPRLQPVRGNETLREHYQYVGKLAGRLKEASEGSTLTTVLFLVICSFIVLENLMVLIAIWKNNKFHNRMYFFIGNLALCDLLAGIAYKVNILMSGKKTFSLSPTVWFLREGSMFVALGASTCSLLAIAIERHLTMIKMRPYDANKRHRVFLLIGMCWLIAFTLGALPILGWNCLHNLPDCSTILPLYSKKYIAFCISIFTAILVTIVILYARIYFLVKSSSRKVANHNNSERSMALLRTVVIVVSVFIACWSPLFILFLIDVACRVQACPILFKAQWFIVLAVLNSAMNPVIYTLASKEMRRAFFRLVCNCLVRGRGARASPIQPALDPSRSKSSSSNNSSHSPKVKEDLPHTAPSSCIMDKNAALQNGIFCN
Sequence of human S1P1 (P21453 whole entry): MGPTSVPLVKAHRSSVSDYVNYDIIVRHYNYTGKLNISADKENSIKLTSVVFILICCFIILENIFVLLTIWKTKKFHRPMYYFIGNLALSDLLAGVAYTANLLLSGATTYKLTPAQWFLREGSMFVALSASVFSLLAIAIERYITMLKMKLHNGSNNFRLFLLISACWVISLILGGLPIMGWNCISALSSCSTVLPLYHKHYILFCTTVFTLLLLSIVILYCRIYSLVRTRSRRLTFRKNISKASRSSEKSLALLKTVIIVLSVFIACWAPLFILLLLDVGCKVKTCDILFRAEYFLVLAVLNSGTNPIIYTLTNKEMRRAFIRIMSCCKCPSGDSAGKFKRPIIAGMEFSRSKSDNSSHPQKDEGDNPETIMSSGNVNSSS
Sequence of S1P1 (membranes from S1P1/CHO cells) (P21453 whole entry): as above

Structure (SMILES) | IC50 (human S1P1) | EC50 [1] | EC50 [2] | GTPγS S1P3/S1P1 (ratio of GTPγS S1P3 EC50 to GTPγS S1P1 EC50) [1] | % Reduction in Lymphocytes at 4 hr. ([3]; 3 mg/kg) | % Reduction in Lymphocytes at 4 hr. ([3]; 0.5 mg/kg)
N[C@@H]1COc2cc(-c3noc(-c4onc(-c5ccccc5)c4C(F)(F)F)n3)ccc2[C@H]1O (racemic) [Example 4, (3R*,4R*)-3-amino-7-(5-(3-phenyl-4-(trifluoromethyl)isoxazol-5-yl)-1,2,4-oxadiazol-3-yl)chroman-4-ol] | 23 nM | 80 nM | 13000 nM | – | – | –
O=C(O)CCN[C@H]1COc2cc(-c3noc(-c4onc(-c5ccccc5)c4C(F)(F)F)n3)ccc2[C@@H]1O (racemic) [Example 5, 3-((3R*,4R*)-4-hydroxy-7-(5-(3-phenyl-4-(trifluoromethyl)isoxazol-5-yl)-1,2,4-oxadiazol-3-yl)chroman-3-ylamino)propanoic acid] | – | – | 25000 nM | – | – | –
N[C@@H]1COc2cc(-c3noc(-c4onc(-c5ccccc5)c4C(F)(F)F)n3)ccc2[C@H]1O (relative stereo) [Example 4, (3R*,4R*)-3-amino-7-(5-(3-phenyl-4-(trifluoromethyl)isoxazol-5-yl)-1,2,4-oxadiazol-3-yl)chroman-4-ol] | – | – | – | 160 | – | –
CCOC(=O)C1CCCC(N[C@@H]2COc3cc(-c4noc(-c5onc(-c6ccccc6)c5C(F)(F)F)n4)ccc3[C@@H]2O)C1 (relative stereo) [Example 13, ethyl 3-((3R*,4S*)-4-hydroxy-7-(5-(3-phenyl-4-(trifluoromethyl)isoxazol-5-yl)-1,2,4-oxadiazol-3-yl)chroman-3-ylamino)cyclohexanecarboxylate] | 630 nM | 160 nM | > 31000 nM | > 200* | – | –
O=C(O)CC1CCCN([C@@H]2COc3cc(-c4noc(-c5onc(-c6ccccc6)c5C(F)(F)F)n4)ccc3[C@@H]2O)C1 (single isomer, unassigned) [Example 50] | 57 nM | 27 nM | 24000 nM | 870 | – | –
N[C@@H]1COc2cc(-c3noc(-c4onc(-c5ccccc5)c4C(F)(F)F)n3)ccc2[C@@H]1O [Example 9, (3R,4S)-3-Amino-7-(5-(3-phenyl-4-(trifluoromethyl)isoxazol-5-yl)-1,2,4-oxadiazol-3-yl)chroman-4-ol] | 39 nM | 33 nM | 8600 nM | 260 | – | –
O=C(O)[C@H]1C[C@@H](N[C@H]2COc3cc(-c4noc(-c5onc(-c6ccccc6)c5C(F)(F)F)n4)ccc3[C@H]2O)C1 [Example 25, (1R,3S)-3-((3S,4R)-4-hydroxy-7-(5-(3-phenyl-4-(trifluoromethyl)isoxazol-5-yl)-1,2,4-oxadiazol-3-yl)chroman-3-ylamino)cyclobutanecarboxylic acid] | – | – | 12000 nM | – | 93% | –
O=C(O)C1(CN[C@@H]2COc3cc(-c4noc(-c5onc(-c6ccccc6)c5C(F)(F)F)n4)ccc3[C@@H]2O)CC1 [Example 30, 1-(((3R,4S)-4-hydroxy-7-(5-(3-phenyl-4-(trifluoromethyl)isoxazol-5-yl)-1,2,4-oxadiazol-3-yl)chroman-3-ylamino)methyl)cyclopropanecarboxylic acid] | 13 nM | 6.5 nM | 8000 nM | 1200 | – | –
O=C(O)C1(CN[C@@H]2COc3cc(-c4noc(-c5onc(-c6ccccc6)c5C(F)(F)F)n4)ccc3[C@@H]2O)CCCCC1 [Example 39, 1-(((3R,4S)-4-hydroxy-7-(5-(3-phenyl-4-(trifluoromethyl)isoxazol-5-yl)-1,2,4-oxadiazol-3-yl)chroman-3-ylamino)methyl)cyclohexanecarboxylic acid] | 541 nM | 85 nM | > 31000 nM | > 370* | – | –
O=C(O)C1(CN[C@@H]2COc3cc(-c4noc(-c5onc(-c6ccccc6)c5C(F)(F)F)n4)ccc3[C@@H]2O)CCC1 [Example 41, 1-(((3R,4S)-4-hydroxy-7-(5-(3-phenyl-4-(trifluoromethyl)isoxazol-5-yl)-1,2,4-oxadiazol-3-yl)chroman-3-ylamino)methyl)cyclobutanecarboxylic acid] | 20 nM | 16 nM | 8400 nM | 510 | – | 11%
O=C(O)CCN[C@@H]1COc2cc(-c3noc(-c4onc(-c5ccccc5)c4C(F)(F)F)n3)ccc2[C@@H]1O [Example 53, 3-((3R,4S)-4-Hydroxy-7-(5-(3-phenyl-4-(trifluoromethyl)isoxazol-5-yl)-1,2,4-oxadiazol-3-yl)chroman-3-ylamino)propanoic acid] | – | – | 22000 nM | – | – | –
O=C(O)[C@H]1CCC[C@H](N[C@@H]2COc3cc(-c4noc(-c5onc(-c6ccccc6)c5C(F)(F)F)n4)ccc3[C@@H]2O)C1 [Example 57, (1S,3S)-3-((3R,4S)-4-hydroxy-7-(5-(3-phenyl-4-(trifluoromethyl)isoxazol-5-yl)-1,2,4-oxadiazol-3-yl)chroman-3-ylamino)cyclohexanecarboxylic acid] | 0.7 nM | 1 nM | 7300 nM | 7300 | – | 69%
O=C(O)[C@@H]1CCC[C@@H](N[C@@H]2COc3cc(-c4noc(-c5onc(-c6ccccc6)c5C(F)(F)F)n4)ccc3[C@@H]2O)C1 [Example 65, (1R,3R)-3-((3R,4S)-4-hydroxy-7-(5-(3-phenyl-4-(trifluoromethyl)isoxazol-5-yl)-1,2,4-oxadiazol-3-yl)chroman-3-ylamino)cyclohexanecarboxylic acid] | 6.6 nM | 1.1 nM | 11000 nM | 9600 | – | 55%
O=C(O)CN[C@@H]1COc2cc(-c3noc(-c4onc(-c5ccccc5)c4C(F)(F)F)n3)ccc2[C@@H]1O [Example 68, 2-((3R,4S)-4-hydroxy-7-(5-(3-phenyl-4-(trifluoromethyl)isoxazol-5-yl)-1,2,4-oxadiazol-3-yl)chroman-3-ylamino)acetic acid] | 3.8 nM | 5.4 nM | 5200 nM | 960 | – | –
